Laboratory results published in US20230089247A1, “NOVEL COMPOUNDS SUITABLE FOR THE TREATMENT OF DYSLIPIDEMIA” (ZYDUS LIFESCIENCES LIMITED, priority 2019, published 2023).

Target: PCSK9 (Homo sapiens, UniProt Q8NBP7)
Assay: BODIPY-LDL uptake assay in HepG2 cells
Assay type: cell-based
Conditions: 5 μg/ml PCSK9, BODIPY-LDL
Summary of the method: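 Compounds pre-incubated 60 min with 5 μg/ml PCSK9 (0.2% DMSO), then added to HepG2 cells for 16 h; 1 μg/ml BODIPY-LDL added in serum-free medium for 5 h. Fluorescence (Ex 485/Em 520 nm) normalized to protein; PCSK9-only wells = 0%, no-PCSK9 wells = 100% uptake, giving percent increase in LDL uptake.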

Sequence of PCSK9 (Q8NBP7 153-692): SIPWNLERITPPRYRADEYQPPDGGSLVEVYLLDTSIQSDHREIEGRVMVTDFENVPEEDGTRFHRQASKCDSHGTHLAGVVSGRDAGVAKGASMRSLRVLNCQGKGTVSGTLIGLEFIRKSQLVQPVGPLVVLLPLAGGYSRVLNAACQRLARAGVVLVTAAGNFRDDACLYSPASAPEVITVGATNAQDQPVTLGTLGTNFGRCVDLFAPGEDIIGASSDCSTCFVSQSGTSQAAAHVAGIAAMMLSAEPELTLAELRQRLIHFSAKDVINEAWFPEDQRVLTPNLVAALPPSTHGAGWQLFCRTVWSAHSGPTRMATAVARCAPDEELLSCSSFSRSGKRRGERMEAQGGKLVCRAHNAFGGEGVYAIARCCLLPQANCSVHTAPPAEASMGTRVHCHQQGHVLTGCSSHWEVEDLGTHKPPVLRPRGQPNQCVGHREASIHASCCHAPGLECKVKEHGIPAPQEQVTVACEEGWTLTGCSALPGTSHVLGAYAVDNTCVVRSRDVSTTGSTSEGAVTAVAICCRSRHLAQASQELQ

Row | SMILES | % increase in LDL Uptake (1 μM test compound) [%] | % increase in LDL Uptake (10 μM test compound) [%] | % increase in LDL Uptake (30 μM test compound) [%]
1 | N#CC1(c2ccc(C(F)(F)F)cc2)CCN(C(=O)c2ccc(C3(O)COC3)cc2)CC1 [Example 116, 1-(4-(3-hydroxyoxetan-3-yl)benzoyl)-4-(4-(trifluoromethyl)phenyl)piperidine-4-carbonitrile] | 7 | 35 | 98
2 | O=C(c1cccc(C2(O)COC2)c1)N1CCC(c2ccc(C(F)(F)F)c(F)c2)CC1 [Example 121, (4-(3-fluoro-4-(trifluoromethyl)phenyl)piperidin-1-yl)(3-(3-hydroxyoxetan-3-yl)phenyl)methanone] | 0 | 22 | 18
3 | O=C(c1cccc(C2(O)COC2)c1)N1CCC(c2ccccc2C(F)(F)F)CC1 [Example 122, (3-(3-hydroxyoxetan-3-yl)phenyl)(4-(2-(trifluoromethyl)phenyl)piperidin-1-yl)methanone] | 0 | 16 | 12
4 | CCOC1(c2ccc(C(=O)N3CCCC(c4ccc(C(F)(F)F)cc4)C3)cc2)COC1 (stereo not drawn) [Example 123, (4-(3-ethoxyoxetan-3-yl)phenyl)(3-(4-(trifluoromethyl)phenyl)piperidin-1-yl)methanone] | 0 | 14 | 30
5 | Cc1ccc(C2=CC3CN(C(=O)c4ccc(C5(O)COC5)cc4)CC3C2)cc1 (stereo not drawn) [Example 130, (4-(3-hydroxyoxetan-3-yl)phenyl)(5-(p-tolyl)-3,3a,6,6a-tetrahydrocyclopenta[c]pyrrol-2(1H)-yl)methanone] | −19 | 20 | 74
6 | CSc1ccc(C2=CC3CN(C(=O)c4ccc(C5(O)COC5)cc4)CC3C2)cc1 (stereo not drawn) [Example 131] | −5 | 57 | −1
7 | O=C(c1ccc(C2(OCC3CC3)COC2)cc1)N1CC2CN(c3ccc(C(F)(F)F)cc3)CC2C1 (stereo not drawn) [Example 133, (4-(3-(cyclopropylmethoxy)oxetan-3-yl)phenyl)(5-(4-(trifluoromethyl)phenyl)hexahydropyrrolo[3,4-c]pyrrol-2(1H)-yl)methanone] | 22 | 28 | 32
8 | CC(C)COC1(c2ccc(C(=O)N3CC4CN(c5ccc(C(F)(F)F)cc5)CC4C3)cc2)COC1 (stereo not drawn) [Example 135, (4-(3-isobutoxyoxetan-3-yl)phenyl)(5-(4-(trifluoromethyl)phenyl)hexahydropyrrolo[3,4-c]pyrrol-2(1H)-yl)methanone] | 5 | 17 | 47
9 | CC(C)OC1(c2ccc(C(=O)N3CC4CN(c5ccc(C(F)(F)F)cc5)CC4C3)cc2)COC1 (stereo not drawn) [Example 136, (4-(3-isopropoxyoxetan-3-yl)phenyl)(5-(4-(trifluoromethyl)phenyl)hexahydropyrrolo[3,4-c]pyrrol-2(1H)-yl)methanone] | 11 | 12 | 14
10 | COCCOC1(c2ccc(C(=O)N3CC4CN(c5ccc(C(F)(F)F)cc5)CC4C3)cc2)COC1 (stereo not drawn) [Example 137, (4-(3-(2-methoxyethoxy)oxetan-3-yl)phenyl)(5-(4-(trifluoromethyl)phenyl)hexahydropyrrolo[3,4-c]pyrrol-2(1H)-yl)methanone] | 0 | 66 | 116
11 | O=C(c1ccc(C2(O)CCNCC2)cc1)N1CCC(c2ccc(C(F)(F)F)cc2)CC1 [Example 141, (4-(4-hydroxypiperidin-4-yl)phenyl)(4-(4-(trifluoromethyl)phenyl)piperidin-1-yl)methanone] | 0 | 0 | 28
12 | COC1(c2ccc(C(=O)N3CCC(c4ccc(C(F)(F)F)cc4)CC3)cc2)CCOCC1 [Example 143, (4-(4-methoxytetrahydro-2H-pyran-4-yl)phenyl)(4-(4-(trifluoromethyl)phenyl)piperidin-1-yl)methanone] | 0 | 41 | 28
13 | O=C(c1ccc(C2(O)CSC2)cc1)N1CCC(c2ccc(C(F)(F)F)cc2)CC1 [Example 145, (4-(3-hydroxythietan-3-yl)phenyl)(4-(4-(trifluoromethyl)phenyl)piperidin-1-yl)methanone] | 2 | 70 | 0
14 | O=C(c1ccc(C2(O)CSC2)cc1)N1CC2CN(c3ccc(C(F)(F)F)cc3)CC2C1 (stereo not drawn) [Example 146, (4-(3-hydroxythietan-3-yl)phenyl)(5-(4-(trifluoromethyl)phenyl)hexahydropyrrolo[3,4-c]pyrrol-2(1H)-yl)methanone] | 53 | 212 | 29
15 | CCOC1(c2ccc(C(=O)N3CCC(c4ccc(C(F)(F)F)cc4)CC3)cc2)CSC1 [Example 148, (4-(3-ethoxythietan-3-yl)phenyl)(4-(4-(trifluoromethyl)phenyl)piperidin-1-yl)methanone] | 20 | 3 | 11
16 | COC1(c2ccc(C(=O)N3CC4CN(c5ccc(C(F)(F)F)cc5)CC4C3)cc2)CSC1 (stereo not drawn) [Example 149, (4-(3-methoxythietan-3-yl)phenyl)(5-(4-(trifluoromethyl)phenyl)hexahydropyrrolo[3,4-c]pyrrol-2(1H)-yl)methanone] | 0 | 30 | 9
17 | CCOC1(c2ccc(C(=O)N3CC4CN(c5ccc(C(F)(F)F)cc5)CC4C3)cc2)CSC1 (stereo not drawn) [Example 150, (4-(3-ethoxythietan-3-yl)phenyl)(5-(4-(trifluoromethyl)phenyl)hexahydropyrrolo[3,4-c]pyrrol-2(1H)-yl)methanone] | 0 | 5 | 25
18 | CC(C)(C)OC(=O)N1CCC(O)(c2ccc(C(=O)N3CCC(c4ccc(C(F)(F)F)cc4)CC3)cc2)C1 (stereo not drawn) [Example 151, tert-butyl 3-hydroxy-3-(4-(4-(4-(trifluoromethyl)phenyl)piperidine-1-carbonyl)phenyl)pyrrolidine-1-carboxylate] | 34 | 0 | 0
19 | O=C(c1ccc(C2(O)CCNC2)cc1)N1CCC(c2ccc(C(F)(F)F)cc2)CC1 (stereo not drawn) [Example 152, (4-(3-hydroxypyrrolidin-3-yl)phenyl)(4-(4-(trifluoromethyl)phenyl)piperidin-1-yl)methanone] | 0 | 0 | 31
20 | COC1(c2ccc(C(=O)N3CCC(c4ccc(C(F)(F)F)cc4)CC3)cc2)CCNC1 (stereo not drawn) [Example 153, (4-(3-methoxypyrrolidin-3-yl)phenyl)(4-(4-(trifluoromethyl)phenyl)piperidin-1-yl)methanone] | 0 | 47 | 46
21 | O=C(c1ccc(C2(O)CNC2)cc1)N1CCC(c2ccc(C(F)(F)F)cc2)CC1 [Example 155, (4-(3-hydroxyazetidin-3-yl)phenyl)(4-(4-(trifluoromethyl)phenyl)piperidin-1-yl)methanone] | 0 | 0 | 58
22 | COC1(c2ccc(C(=O)N3CCC(c4ccc(C(F)(F)F)cc4)CC3)cc2)CCN(C(C)=O)CC1 [Example 158, 1-(4-methoxy-4-(4-(4-(4-(trifluoromethyl)phenyl)piperidine-1-carbonyl)phenyl)piperidin-1-yl)ethan-1-one] | 0 | 42 | 0
23 | CCOC1(c2ccc(C(=O)N3CCC(c4ccc(C(F)(F)F)cc4)CC3)cc2)CCN(C(=O)OC(C)(C)C)CC1 [Example 161, tert-butyl 4-ethoxy-4-(4-(4-(4-(trifluoromethyl)phenyl)piperidine-1-carbonyl)phenyl) piperidine-1-carboxylate] | 0 | 0 | 16
24 | O=C(c1ccc(C2(O)COC2)cc1)N1CCc2nc(-c3ccc(C(F)(F)F)cc3)sc2C1 [Example 175, (4-(3-hydroxyoxetan-3-yl)phenyl)(2-(4-(trifluoromethyl)phenyl)-6,7-dihydrothiazolo[5,4-c]pyridin-5(4H)-yl)methanone] | 17 | 0 | 0
